# Laboratory results: patent US8835147B2, “Cellular production of glucaric acid through recombinant expression of uronate dehydrogenase and myo-inositol oxygenase” (Massachusetts Institute of Technology, priority 2008, dated 2014)
# “And” between values parts separate entries of the source, which are not always exact repeats. Identical values can stand only once. Like-named read-outs stand apart in the source and are kept apart here.
# T1: MIOX from hog kidney (Sus scrofa, UniProt Q8WN98)
# T1 sequence (Q8WN98 1-282): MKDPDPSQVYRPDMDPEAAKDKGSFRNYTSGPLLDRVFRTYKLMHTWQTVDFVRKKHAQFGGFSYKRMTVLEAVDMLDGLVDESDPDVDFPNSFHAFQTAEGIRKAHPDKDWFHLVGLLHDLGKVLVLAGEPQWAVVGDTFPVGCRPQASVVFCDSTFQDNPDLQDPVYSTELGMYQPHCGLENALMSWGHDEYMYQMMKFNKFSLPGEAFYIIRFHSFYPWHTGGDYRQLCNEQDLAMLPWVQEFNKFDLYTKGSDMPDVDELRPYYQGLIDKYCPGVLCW
# B1: A. tumefaciens Udh: 6×-His tagged uronate dehydrogenase from A. tumefaciens str. C58 (SEQ ID NO:24), expressed in E. coli and purified (protein, listed as Agrobacterium tumefaciens)
# chain: MKRLLVTGAAGQLGRVMRERLAPMAEILRLADLSPLDPAGPNEECVQCDLADANAVNAMVAGCDGIVHLGGISVEKPFEQILQGNIIGLYNLYEAARAHGQPRIVFASSNHTIGYYPQTERLGPDVPARPDGLYGVSKCFGENLARMYFDKFGQETALVRIGSCTPEPNNYRMLSTWFSHDDFVSLIEAVFRAPVLGCPVVWGASANDAGWWDNSHLGFLGWKPKDNAEAFRRHITETTPPPDPNDALVRFQGGTFVDNPIFKQS
# modifications: 6xHis tag
# Columns and labels:
# [1] = target: T1, MIOX from hog kidney; settings: cited from earlier work; for inhibition of MIOX from hog kidney in vitro: reported (30, 31); for inhibition of MIOX activity: at high concentrations, reported previously (30, 31)
# [2] = target: T2, uronate dehydrogenase (Udh) of P. syringae (Pseudomonas syringae pv. tomato, UniProt Q888H1); assay: Udh activity in crude E. coli lysates (NADH generation at 340 nm); format: biochemical; settings: crude E. coli lysates containing the P. syringae udh gene; data not shown
# T2 construct: made in house; host or cells: E. coli (DH10B or BL21(DE3)); crude lysate, not purified
# T2 sequence (Q888H1 whole entry): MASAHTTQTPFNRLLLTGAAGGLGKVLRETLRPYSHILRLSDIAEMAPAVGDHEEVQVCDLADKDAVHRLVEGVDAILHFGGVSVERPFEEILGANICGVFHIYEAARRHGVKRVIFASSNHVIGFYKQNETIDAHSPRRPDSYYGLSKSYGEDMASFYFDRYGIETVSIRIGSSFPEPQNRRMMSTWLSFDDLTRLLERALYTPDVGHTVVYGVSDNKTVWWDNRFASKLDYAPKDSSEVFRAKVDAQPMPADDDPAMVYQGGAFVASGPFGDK
# Protocol: Assays for uronate dehydrogenase activity were performed by monitoring NADH co-factor generation at 340 nm as described previously (35, 40). The reaction mixture contained 100 mM sodium phosphate buffer (pH 8.0), 2.5 mM glucuronic acid, 0.9 mM NAD^+, and bacterial lysate prepared as described above.
# Bacterial lysates for enzymatic analysis were prepared by the freeze-thaw method. E. coli strains harboring udh genes were grown overnight in LB medium containing 0.1 mM IPTG (Isopropyl β-D-1-thiogalactopyranoside). Pellets were re-suspended in 1 mg/mL lysozyme solution and incubated on ice for 30 min. The suspensions were frozen in liquid nitrogen then thawed in a 37° C. water bath. This step was repeated five times. Cell lysates were centrifuged at 14,000 rpm at 4° C. for 15 min, and the supernatant was used for enzymatic analysis. Udh activities on glucuronate were measured by monitoring NADH (nicotinamide adenine dinucleotide, reduced) generation at 340 nm (38). The reaction mixture was consisted of 2.5 mM glucuronate, 0.9 mM NAD^+ (nicotinamide adenine dinucleotide), and 100 mM sodium phosphate buffer. The reaction was initiated by the addition of lysate to the reaction mixture at room temperature, and monitored. […] The total protein concentration was determined using the Bradford method (Bradford (1976) Anal Biochem 72:248-54). […]
# [3] = system: E. coli; assay: E. coli growth and glucose consumption with added organic acid salts; format: cell-based, Escherichia coli; settings: added at concentrations as high as 10 g/L; data not shown
# [4] = target: T3, uronate dehydrogenase from P. putida (Pseudomonas putida, UniProt Q88NN6); assay: Kinetic analysis of purified Udh (initial NADH generation at 340 nm); format: biochemical, Pseudomonas putida KT2440; settings: purified 6×His Udh, 0 to 10 mM substrate, 1.2 mM NAD^+
# T3 construct: 6xHis (C); made in house; host or cells: E. coli BL21 (DE3)
# T3 sequence (Q88NN6 whole entry): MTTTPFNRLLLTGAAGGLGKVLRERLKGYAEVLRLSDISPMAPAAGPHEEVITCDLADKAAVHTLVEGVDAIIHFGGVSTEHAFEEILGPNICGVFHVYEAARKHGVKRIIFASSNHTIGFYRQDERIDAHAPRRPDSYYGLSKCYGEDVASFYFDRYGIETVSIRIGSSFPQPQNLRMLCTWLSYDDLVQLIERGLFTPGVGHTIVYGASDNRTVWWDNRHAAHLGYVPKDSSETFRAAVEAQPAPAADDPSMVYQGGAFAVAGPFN
# Protocol: (§1) The udh genes from genomic DNA of A. tumefaciens, P. putida, and P. syringae were amplified using primers ATuEQ-F/R, PPuEQ-F/R, and PSuEQ-F/R as listed in Table 4. The PCR products were digested with SacI and HindIII and inserted into the same sites of pET21b containing a 6×His-Tag to construct pETATu, pETPPu, and pETPSu, respectively (Table 4). These plasmids were used to transform E. coli BL21 (DE3) to use for protein expression. The recombinant E. coli BL21 strains were cultivated at 30° C., 250 rpm for 6 hours after IPTG induction. Protein purification was carried out using the ProBond™ Purification System as described by the manufacturer (Invitrogen Corp, Carlsbad, Calif., USA). SDS-PAGE (sodium dodecyl sulfate-polyacrylamide gel electrophoresis) was performed as described in Sambrook et. al. (35). Enzyme activities on substrates of purified proteins were measured by monitoring initial NADH generation at 340 nm and room temperature. Kinetic analysis on glucuronate and galacturonate was carried out using 0 to 10 mM glucuronate or galacturonate and 1.2 mM NAD^+ in 100 mM Tris-HCl, pH 8.0. Kinetic analysis on NAD^+ was performed using 0 to 2 mM NAD^+ and 10 mM glucuronate in 100 mM Tris-HCl, pH 8.0. A series of enzymatic assays were conducted to estimate the initial activity as a function of starting substrate concentration. […] Nonlinear least-squares regression analyses were performed via the Gauss-Newton method as implemented using the intrinsic Matlab® function nlinfit.
# [5] = target: T4, uronate dehydrogenase from P. syringae (Pseudomonas syringae pv. tomato, UniProt Q888H1); assay: as above; format: biochemical, Pseudomonas syringae pv. tomato str. DC3000; settings: purified 6×His Udh, 0 to 10 mM substrate, 1.2 mM NAD^+
# T4 construct: 6xHis (C); made in house; host or cells: E. coli BL21 (DE3)
# T4 sequence (Q888H1 whole entry): as the sequence (Q888H1 whole entry) above
# Protocol: as §1
# [6] = target: T5, uronate dehydrogenase from A. tumefaciens (Agrobacterium fabrum, UniProt Q7CRQ0); assay: as above; format: biochemical, Agrobacterium tumefaciens str. C58; settings: for kcat / Km: purified 6×His Udh, 0 to 10 mM substrate, 1.2 mM NAD^+
# T5 construct: 6xHis (C); made in house; host or cells: E. coli BL21 (DE3)
# Protocol: as §1
# [7] = Thermal stability of purified Udhs (30 minutes at temperature, then standard assay); format: physicochemical; settings: purified Udh, FIG. 10b
# Protocol: The impact of temperature was evaluated in two ways. First, the thermal stability was examined by exposing enzyme preparations to various temperatures for 30 minutes, then performing the enzyme assay under standard conditions. […] The activity remained near 80% of maximum after exposure of the A. tumefaciens preparation to 37° C., while the corresponding activities for both of the other enzymes was below 20% of maximum. The stability profiles for both Pseudomonas enzymes were similar to one another. Finally, enzyme activity was evaluated for assays conducted under increasing temperatures. These activities followed a general trend of increasing activity with increasing temperature between 4 and 42° C., which is consistent with an Arrhenius-type dependence of the catalytic rate constant on temperature (FIG. 10c).
# [8] = 100 mM Tris-HCl pH 8.0, room temperature
molecule,measurement,setting,value
O=C[C@H](O)[C@H]1OC(=O)[C@@H](O)[C@H]1O [D-glucuronolactone],inhibition of MIOX from hog kidney in vitro,[1],not
NC(=O)c1ccc[n+]([C@@H]2O[C@H](COP(=O)([O-])OP(=O)(O)OC[C@H]3O[C@@H](n4cnc5c(N)ncnc54)[C@H](OP(=O)(O)O)[C@@H]3O)[C@@H](O)[C@H]2O)c1 [NADP^+],utilization as a co-factor,[2],not
"NC(=O)c1ccc[n+]([C@@H]2O[C@H](COP(=O)([O-])OP(=O)(O)OC[C@H]3O[C@@H](n4cnc5c(N)ncnc54)[C@H](O)[C@@H]3O)[C@@H](O)[C@H]2O)c1 [NAD^+, nicotinamide adenine dinucleotide]",utilization as a co-factor,[2],utilized
O=C[C@H](O)[C@@H](O)[C@H](O)[C@H](O)C(=O)[O-].[Na+] [sodium glucuronate],E. coli growth and glucose consumption,[3],not observed to be affected
[Fe+2] [Fe^2+],inhibition of MIOX activity,[1],inhibited
O=C([O-])[C@@H](O)[C@@H](O)[C@H](O)[C@@H](O)C(=O)[O-].[K+].[K+] [potassium glucarate],E. coli growth and glucose consumption,[3],not observed to be affected
O=C(O)[C@@H](O)[C@@H](O)[C@H](O)[C@@H](O)C(=O)O [D-glucaric acid],inhibition of MIOX from hog kidney in vitro,[1],inhibited
N[C@@H](CS)C(=O)O [cysteine],inhibition of MIOX activity,[1],inhibited
"O=C(O)[C@H]1O[C@H](O)[C@H](O)[C@@H](O)[C@H]1O [Galacturonate, galacturonate]",kcat,[4]; [8],30 ± 3 s⁻¹ and 30.08 ± 3.12 s⁻¹
same,Km,[4]; pH 8.0,100 ± 60 µM
same,kcat,[4]; pH 8.0,0.3 ± 0.03 10^2 · 1/s
same,kcat,[5]; [8],24 ± 1 s⁻¹ and 24.02 ± 0.73 s⁻¹
same,Km,[5]; pH 8.0,40 µM
same,kcat,[5]; pH 8.0,0.2 ± 0.01 10^2 · 1/s
same,kcat,[6]; [8],92 ± 14 s⁻¹ and 91.85 ± 14.26 s⁻¹
same,Km,[6]; pH 8.0,160 ± 120 µM
same,kcat,[6]; pH 8.0,0.9 ± 0.14 10^2 · 1/s
"O=C(O)[C@H]1O[C@@H](O)[C@H](O)[C@@H](O)[C@@H]1O [Glucuronate, glucuronate]",kcat,[4]; [8],55 ± 3 s⁻¹ and 54.57 ± 2.60 s⁻¹
same,Km,[4]; pH 8.0,250 ± 70 µM
same,kcat,[4]; pH 8.0,0.5 ± 0.03 10^2 · 1/s
same,kcat,[5]; [8],74 ± 3 s⁻¹ and 73.77 ± 3.13 s⁻¹
same,Km,[5]; pH 8.0,280 ± 70 µM
same,kcat,[5]; pH 8.0,0.7 ± 0.03 10^2 · 1/s
same,kcat (highest rate constant),[6],190 s⁻¹
same,kcat of A. tumefaciens enzyme relative to the Pseudomonas enzymes,[6]; glucuronate as substrate,more than 2 fold
same,kcat,[6]; [8],194 ± 12 s⁻¹ and 193.90 ± 11.84 s⁻¹
same,Km,[6]; pH 8.0,370 ± 120 µM
same,kcat,[6]; pH 8.0,1.9 ± 0.12 10^2 · 1/s
same,kcat (highest rate constant),[6]; unit not given,1.9×10^2
same,inhibition of MIOX from hog kidney in vitro,[1],not
B1,activity after exposure to 37° C. for 30 minutes,[7],~80 % of maximum
